Results from US12637418B2, “Heterocyclic compounds as antagonist of NMDA” (TAKEDA PHARMACEUTICAL COMPANY LIMITED, priority 2019, dated 2026).

Legend:
[1] = biological target: NMDA receptor composed of four subunits including 2 sets of heterodimers of NR1 and NR2B (human GRIN1 and GRIN2B expressed in HEK293 cell) (Homo sapiens, UniProt Q13224); test: NR2B Ca^2+ influx assay; assay type: cell-based; settings: 10 μM final compound concentration, 30 μM glutamic acid and 30 μM glycine, HEK293 cells expressing GRIN1 and GRIN2B, Fluo-4 fluorescence; for inhibition at 10 µM: read-out: inhibitory rate (10 μM compound concentration)
From the text: To confirm the “antagonistic action on an NMDA receptor containing the NR2B subunit” of the compound of the present invention, human embryonic kidney cell expressing the “NMDA receptor composed of four subunits including 2 sets of heterodimers of NR1 and NR2B”, specifically HEK293 cell expressing human glutamate ionotropic receptor NMDA type subunit 1 (GRIN1) and human glutamate ionotropic receptor NMDA type subunit 2B (GRIN2B), was used and the activation suppressive effect on the receptors was measured.
HEK293 cells that express GRIN1 and GRIN2B were purchased from ChanTest (Human NMDA (NR1/NR2B) Receptor-expressing, stable replicating cell line (HEK293) catalog No. CT6121).
As an index of the NMDA receptor activation, intracellular calcium ion (Ca^2+) influx caused by the binding of glycine and glutamic acid with NR1 and NR2B, respectively, was used.
HEK293 cells that express GRIN1 and GRIN2B were cultured in DMEM/F-12 (COSMO BIO, 10-092-CM) medium added with 10% FBS (fetal bovine serum, AusGene), 100 units/mL penicillin, 100 μg/mL streptomycin, 500 μg/mL neomycin, 100 μg/mL Zeocin (registered trade mark, Invitrogen), 5 μg/mL Blasticidin in a cell culture flask in an incubator (under 37° C., 5% CO2).
The cells were detached from the flask with trypsin the day before the assay, suspended in a seeding medium (DMEM (Invitrogen, 31053) added with 10% FBS, 100 units/mL penicillin, 100 μg/mL streptomycin) at 8×10^5 cells/mL, seeded by 25 μL per well in a 384-well plate (Falcon, 356663) at 20000 cells/well, and cultured overnight in an incubator. On the day of the assay, tetracycline (Wako Pure Chemical Industries, Ltd., 209-16561) was diluted with the seeding medium at 2 μg/mL, added at 25 μL/well to the plate seeded with the cells, and cultured for 2 hr in an incubator. Thereafter, the medium was removed, and the cells were washed with 50 μL/well assay buffer (137 mM NaCl, 4 mM KCl, 1.8 mM CaCl2, 10 mM HEPES (pH 7.2), 10 mM Glucose, 0.1% BSA). Then, a loading buffer (assay buffer added with 2.5 μM Fluo-4AM, 2 mM Amaranth, 1 mM Tartrazine) was added at 25 μL/well, and the cells were incubated in the incubator for 30 min, and at room temperature for 15 min. A solution of the Example compound diluted with the above-mentioned assay buffer at 30 μM (final concentration 10 μM) was added at 25 μL/well, and the cells were left standing for 15 min at room temperature. Using FDSS7000EX/μCELL (Hamamatsu Photonics K.K.), an assay buffer containing 30 μM glutamic acid and 30 μM glycine was added at 25 μL/well, and fluorescence signals with wavelengths of Excitation 480 nm and Emission 540 nm were measured every 3 seconds for 5 min. The inhibitory activity was calculated as a relative activity value (inhibitory rate) that inhibits 100% of the cumulative value of the fluorescence value of a well added with an assay buffer free of glutamic acid, glycine, relative to the cumulative value of the fluorescence value of each well.

[2] = rodents; cited from earlier work

NMDA receptor composed of four subunits including 2 sets of heterodimers of NR1 and NR2B (human GRIN1 and GRIN2B expressed in HEK293 cell), sequence (Q13224 27-1484, other chains not shown): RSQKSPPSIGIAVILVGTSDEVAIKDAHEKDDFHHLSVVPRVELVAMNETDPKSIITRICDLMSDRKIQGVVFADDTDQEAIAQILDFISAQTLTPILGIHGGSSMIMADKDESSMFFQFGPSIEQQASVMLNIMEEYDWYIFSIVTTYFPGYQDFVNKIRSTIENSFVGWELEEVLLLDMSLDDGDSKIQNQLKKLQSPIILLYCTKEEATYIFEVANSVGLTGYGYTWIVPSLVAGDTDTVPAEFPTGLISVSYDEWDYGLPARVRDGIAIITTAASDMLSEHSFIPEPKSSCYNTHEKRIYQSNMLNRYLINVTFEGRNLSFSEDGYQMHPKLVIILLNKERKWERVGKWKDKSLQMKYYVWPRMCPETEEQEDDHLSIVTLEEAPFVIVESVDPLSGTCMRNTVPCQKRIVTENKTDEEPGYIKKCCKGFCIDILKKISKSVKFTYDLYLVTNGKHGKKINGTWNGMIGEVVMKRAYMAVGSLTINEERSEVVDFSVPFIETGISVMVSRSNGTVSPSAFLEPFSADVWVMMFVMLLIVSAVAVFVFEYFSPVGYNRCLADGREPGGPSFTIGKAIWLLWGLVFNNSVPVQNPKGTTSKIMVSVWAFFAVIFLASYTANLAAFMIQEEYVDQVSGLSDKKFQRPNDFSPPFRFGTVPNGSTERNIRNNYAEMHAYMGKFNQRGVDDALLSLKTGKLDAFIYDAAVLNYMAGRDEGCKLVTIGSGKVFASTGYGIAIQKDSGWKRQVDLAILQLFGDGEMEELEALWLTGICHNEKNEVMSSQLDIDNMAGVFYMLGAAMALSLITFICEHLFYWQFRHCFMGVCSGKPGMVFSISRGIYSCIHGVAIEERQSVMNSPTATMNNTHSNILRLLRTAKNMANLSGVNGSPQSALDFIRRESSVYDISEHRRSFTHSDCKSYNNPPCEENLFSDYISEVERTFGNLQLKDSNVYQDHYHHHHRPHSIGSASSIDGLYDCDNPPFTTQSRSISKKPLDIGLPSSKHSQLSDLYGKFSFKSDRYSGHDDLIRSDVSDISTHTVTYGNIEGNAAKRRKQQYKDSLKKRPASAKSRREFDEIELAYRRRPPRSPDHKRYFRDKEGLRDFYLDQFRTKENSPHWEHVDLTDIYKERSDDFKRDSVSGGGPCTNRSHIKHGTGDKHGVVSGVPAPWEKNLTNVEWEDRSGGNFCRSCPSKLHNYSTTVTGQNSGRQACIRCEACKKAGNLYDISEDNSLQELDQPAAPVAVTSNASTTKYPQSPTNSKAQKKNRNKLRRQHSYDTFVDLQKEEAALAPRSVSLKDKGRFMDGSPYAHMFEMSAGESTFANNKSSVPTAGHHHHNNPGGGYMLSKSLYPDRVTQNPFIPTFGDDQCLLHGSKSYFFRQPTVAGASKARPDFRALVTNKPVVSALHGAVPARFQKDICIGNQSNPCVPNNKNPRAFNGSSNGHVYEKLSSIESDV

Row | Compound | inhibition at 10 µM [1] [%] | also measured
1 | COc1c(C#N)ccc(F)c1CNC(=O)c1cnc(OC(F)F)c(F)c1 [Example 15, N-[(3-cyano-6-fluoro-2-methoxyphenyl)-methyl]-(difluoromethoxy)-5-fluoropyridine-3-carboxamide] | 89 | 
2 | COc1cc(C#N)cc(CNC(=O)c2cnc(OC)c(F)c2)c1F [Example 26, N-[(5-cyano-2-fluoro-3-methoxyphenyl)-methyl]-5-fluoro-6-methoxypyridine-3-carboxamide] | 75 | 
3 | COc1cnc(C#N)cc1CNC(=O)c1ccc(OC(F)(F)F)cc1 [Example 29, N-[(2-cyano-5-methoxypyridin-4-yl)methyl]-4-(trifluoromethoxy)-bezamide] |  | inhibitory rate (10 μM compound concentration) [1]: 92
4 | C[C@@H](CN1CCC(Cc2ccccc2)CC1)[C@@H](O)c1ccc(O)cc1 [Ro25-6981] |  | number of occurrence and depth of cortical spreading depression [2]: suppress the number of occurrence and the depth of cortical spreading depression
5 | N#Cc1ccc(C2CC2)c(CNC(=O)c2ccc(OC(F)F)c(F)c2)c1 [Example 6, N-[(5-cyano-2-cyclopropylphenyl)-methyl]-4-(difluoromethoxy)-3-fluorobenzamide] | 93 | 
6 | COc1c(CNC(=O)c2cnc(OC(F)F)c(F)c2)cc(C#N)nc1C [Example 27, N-[(6-cyano-3-methoxy-2-methyl-pyridin-4-yl)methyl]-6-(difluoromethoxy)-5-fluoropyridine-3-carboxamide] | 77 | 
7 | COc1ccc(C#N)nc1CNC(=O)c1cnc(OC(F)F)c(F)c1 [Example 19, N-[(6-cyano-3-methoxypyridin-2-yl)methyl]-6-(difluoromethoxy)-5-fluoropyridine-3-carboxamide] | 89 | 
8 | COc1cnc(C#N)cc1CNC(=O)c1ccc(C(F)(F)F)c(F)c1 [Example 30, N-[(2-cyano-5-methoxypyridin-4-yl)methyl]-3-fluoro-4-(trifluoromethyl)-bezamide] |  | inhibitory rate (10 μM compound concentration) [1]: 87
9 | COc1cc(F)c(C#N)cc1CNC(=O)c1cnc(OC(F)F)c(F)c1 [Example 23, N-[(5-cyano-4-fluoro-2-methoxyphenyl)-methyl]-6-(difluoromethoxy)-5-fluoropyridine-3-carboxamide] | 98 | 
10 | Cc1c(C#N)ccc(F)c1CNC(=O)c1cnc(OC(F)F)c(F)c1 [Example 18, N-[(3-cyano-6-fluoro-2-methylphenyl)-methyl]-6-(difluoromethoxy)-5-fluoropyridine-3-carboxamide] | 66 | 
11 | COc1ccc(C#N)cc1CNC(=O)c1ccc(OC(F)(F)F)c(F)c1 [Example 11, N-[(5-cyano-2-methoxyphenyl)-methyl]-3-fluoro-4-(trifluoromethoxy)-benzamide] | 96 | 
12 | COc1ccc(C#N)cc1CNC(=O)c1cnc(OC(F)F)c(F)c1 [Example 7, N-[(5-cyano-2-methoxyphenyl)methyl]-6-(difluoromethoxy)-5-fluoropyridine-3-carboxamide] | 94 | 
13 | N#Cc1ccc(OCC(F)F)c(CNC(=O)c2cnc(OC(F)F)c(F)c2)c1 [Example 14, N-{[5-cyano-2-(2,2-difluoroethoxy)-phenyl]-methyl}-6-(difluoromethoxy)-5-fluoropyridine-3-carboxamide] | 92 | 
14 | N#Cc1ccc(C2CC2)c(CNC(=O)c2ccc(OC(F)(F)F)c(F)c2)c1 [Example 4, N-[(5-cyano-2-cyclopropylphenyl)-methyl]-3-fluoro-4 (trifluoromethoxy)-benzamide] | 94 | 
15 | COc1cc(C#N)cc(CNC(=O)c2cnc(OC(F)F)c(F)c2)c1 [Example 24, N-[(3-cyano-5-methoxyphenyl)-methyl]-6-(difluoromethoxy)-5-fluoropyridine-3-carboxamide] | 97 | 
16 | COc1ncc(C(=O)NCc2cc(C#N)cc(F)c2OC)cc1F [Example 21, N-[(5-cyano-3-fluoro-2-methoxyphenyl)-methyl]-5-fluoro-6-methoxypyridine-3-carboxamide] | 94 | 
17 | N#Cc1ccc(Br)c(CNC(=O)c2ccc(OC(F)F)c(F)c2)c1 [Example 3, N-[(2-bromo-5-cyanophenyl)methyl]-4-(difluoromethoxy)-3-fluorobenzamide] | 93 | 
18 | COc1cc(C#N)cc(CNC(=O)c2cnc(OC(F)F)c(F)c2)c1F [Example 25, N-[(5-cyano-2-fluoro-3-methoxyphenyl)-methyl]-6-(difluoromethoxy)-5-fluoropyridine-3-carboxamide] | 89 | 

Continued, in another order:

Row | inhibition at 10 µM [1] [%] | Compound | also measured
19 | 93 | N#Cc1ccc(OCC(F)(F)F)c(CNC(=O)c2cnc(OC(F)F)c(F)c2)c1 [Example 13, N-{[5-cyano-2-(2,2,2-trifluoroethoxy)-phenyl]-methyl}-6-(difluoromethoxy)-5-fluoropyridine-3-carboxamide] | 
20 | 91 | N#Cc1ccc(F)c(CNC(=O)c2cnc(OC(F)F)c(F)c2)c1 [Example 12, N-[(5-cyano-2-fluorophenyl)methyl]-6-(difluoromethoxy)-5-fluoropyridine-3-carboxamide] | 
21 | 83 | Cc1ccc(C#N)cc1CNC(=O)c1cnc(OC(F)F)c(F)c1 [Example 8, N-[(5-cyano-2-methylphenyl)-methyl]-6-(difluoromethoxy)-5-fluoropyridine-3-carboxamide] | 
22 | 94 | COc1ncc(C#N)cc1CNC(=O)c1ccc(C(F)(F)F)s1 [Example 16, N-[(5-cyano-2-methoxypyridin-3-yl)methyl]-5-(trifluoromethyl)thiophene-2-carboxamide] | 
23 | 95 | COc1ccc(C#N)cc1CNC(=O)c1ccc(OC(F)F)c(F)c1 [Example 10, N-[(5-cyano-2-methoxyphenyl)-methyl]-4-(difluoromethoxy)-3-fluorobenzamide] | 
24 | 92 | N#Cc1ccc(Br)c(CNC(=O)c2cnc(OC(F)F)c(F)c2)c1 [Example 2, N-[(2-bromo-5-cyanophenyl)methyl]-6-(difluoromethoxy)-5-fluoropyridine-3-carboxamide] | 
25 | 95 | N#Cc1ccc(C2CC2)c(CNC(=O)c2cnc(OC(F)F)c(F)c2)c1 [Example 5, N-[(5-cyano-2-cyclopropylphenyl)-methyl]-6-(difluoromethoxy)-5-fluoropyridine-3-carboxamide] | 
26 | 94 | COc1cnc(C#N)c(F)c1CNC(=O)c1cnc(OC(F)F)c(F)c1 [Example 22, N-[(2-cyano-3-fluoro-5-methoxypyridin-4-yl)methyl]-6-(difluoromethoxy)-5-fluoropyridine-3-carboxamide] | 
27 | 97 | COc1c(F)cc(C#N)cc1CNC(=O)c1cnc(OC(F)F)c(F)c1 [Example 20, N-[(5-cyano-3-fluoro-2-methoxyphenyl)-methyl]-6-(difluoromethoxy)-5-fluoropyridine-3-carboxamide] | 
28 | 91 | COc1cnc(C#N)cc1CNC(=O)c1cnc(OC(F)F)c(F)c1 [Example 28, N-[(2-cyano-5-methoxypyridin-4-yl)methyl]-6-(difluoromethoxy)-5-fluoropyridine-3-carboxamide] | 
29 | 86 | N#Cc1ccc(Br)c(CNC(=O)c2ccc(OC(F)(F)F)c(F)c2)c1 [Example 1, N-[(2-bromo-5-cyanophenyl)methyl]-3-fluoro-4-(trifluoromethoxy)benzamide] | 
